{
  "source": "patent US20230285490A1",
  "about": "“ADDITIVE TO FISH FOOD COMPRISING TWO PLANT EXTRACTS AND A SEAWEED (PALMARIA PALMATA) EXTRACT AS TASTE MASKING AGENT; AND A METHOD TO COMBAT/ELIMINATE INFESTATIONS OF CALIGUS BY STERILIZATION OF FEMALE INDIVIDUALS IN FISH FARMING CENTERS AND MARINE CONCESSIONS” (priority 2020, published 2023)",
  "tested_on": "ovigerous Caligus females",
  "assay": "In vitro plate bioassay on swimming behavior and survival of ovigerous Caligus females, comparison with emamectin benzoate (Example 7)",
  "details": "2 hours, 14° C., sea water",
  "excerpt": "However, 75% living females slowly swam, having a slow response to stimulus and adhered to experimentation vessels. • Between 87 and 100% parasites survived in control with solvents (methanol and DMSO) used to prepare each product and in sea water. Under these conditions females actively swam and readily responded to stimulus as bubbles of the aeration system or manipulation with tweezers.",
  "data": [
    {"substance": "emamectin benzoate", "values": [
      {"measurement": "Affected and dead Total (%)", "setting": "15 ovigerous females", "value": 27, "unit": "%"},
      {"measurement": "Affected ovigerous females", "setting": "15 ovigerous females", "value": 1},
      {"measurement": "Vivas (living ovigerous females)", "setting": "15 ovigerous females", "value": 11},
      {"measurement": "dead ovigerous females", "setting": "15 ovigerous females", "value": 3},
      {"measurement": "Affected and dead Total (%)", "setting": "15 ovigerous females, listed as emamectin benzoate", "value": 25, "unit": "%"},
      {"measurement": "remaining living females with slow/erratic swimming", "value": 75, "unit": "%"}
    ]}
  ]
}
